Entries after “also recorded” stand apart in the source; their conditions may differ.
Experiments:
MCF-7 cells [1] = assay: Soft agar assay for colony formation (anchorage-independent growth); format: cell-based; conditions: for visible colony formation in soft agar: MCF-7 cells, 10 μM, treated 40 h, colonies after 21 days
Description: Soft Agar Assay for Colony Formation:
After cells were treated with various conditions, they were seeded in six-well plates. The plates were first covered with phenol red-free MEM containing 0.6% agar and 10% FBS. The middle layer contained cells (5×10^3) in phenol red-free MEM with 0.35% agar and 10% FBS. The top layer, consisting of the medium, was added to prevent drying of the agar in the plates. The plates were incubated for 21 days, after which the plates were stained in 0.5 ml of 0.005% crystal violet for 1 h and the cultures were inspected and photographed. The colony efficiency (CE) was determined by a count of the number of colonies greater than […] in diameter, which was calculated as the average of colonies counted at 50× magnification in five individual fields manually (Liu S, et al. Oncogene, 23:1256-62, 2004).
The long-term effects of statins and the inhibitors on the proliferation and survival of MCF-7 cells were determined using clonogenic assays (Ramanathan B, et al. Cancer Res, 65:8455-60, 2005). The extent of malignancy of cells corresponds to the attainment of anchorage-independent growth (Liu S, et al. Oncogene, 23:1256-62, 2004). MCF-7 cells were treated with simvastatin or fluvastatin in the presence or absence of either 1400 W or mevalonate or sepiapterin. In separate experiments, cells were treated with either GGTI-298 or FTI-277. At the end of the treatments, approximately 5×10^3 cells were seeded onto a soft agar to determine their clonogenic efficiency after 21 days. […] In the presence of either 1400 W or mevalonate, the colony formation was restored in statin-treated cells (FIG. 6B).

MCF-7 cells [2] = assay: Apoptosis by TUNEL assay; format: cell-based; conditions: with simvastatin or fluvastatin 5-10 μM, 48 h, 1400 W 10 μM, sepiapterin 50 μM, mevalonate 20 μM
Source text: Measurement of Apoptosis by TUNEL Assay:
The terminal deoxynucleotidyl transferase-mediated nick-end labeling (TUNEL) assay was used for microscopic detection of apoptosis (Kotamraju S, et al. J Biol Chem, 277:17179-87, 2002). This assay is based on labeling of 3′ free hydroxyl ends of the fragmented DNA with fluorescein-dUTP catalyzed by terminal deoxynucleotidyl transferase. Procedures were followed according to a commercially available kit (ApoAlert) from Clontech. […] The apoptotic cells were detected by fluorescence microscopy equipped with rhodamine and FITC filters. The quantification of apoptosis was performed using the Metamorph image analysis package.
Under these conditions, NO2^−/NO3^− levels were decreased (FIG. 4B). […] Further verification that iNOS is involved in […] NO was obtained from inhibition of geranylgeranylation and farnesylation. […] In contrast, FTI-277 (farnesylation inhibitor) and sepiapterin had no effect on NO2^−/NO3^− levels (FIG. 4C). […] In the TUNEL assay, cells were treated with simvastatin or fluvastatin (5-10 μM) for 48 h in the presence or absence of 1400 W (10 μM), sepiapterin (50 μM) or mevalonate (20 μM) and stained for TUNEL-positive cells as an index of DNA fragmentation monitored by fluorescence microscopy (original magnification, ×100). Photographs were taken for the overlaid images of propidium iodide-and FITC-stained cells (TUNEL-positive cells). Yellow and red denote apoptotic and nonapoptotic cells, respectively. We observed that the TUNEL positive staining was enhanced in statin-treated MCF-7 cells. […] Pretreatment with 1400 W or mevalonate caused a decrease in the TUNEL positive cells.

[3] = tested on: NO2-/NO3- levels in MCF-7 cells; assay: Nitrite and nitrate measurements by chemiluminescence (NO analyzer); format: cell-based; conditions: for effect on statin-induced NO / NO2-/NO3- levels: with simvastatin or fluvastatin (10 μM), 40 h, mevalonate 20 μM, 1400 W 10 μM, sepiapterin 50 μM, compared to statin alone
Description: Briefly, following treatments, cells were washed three times with DPBS after aspirating the medium. To this, 1 ml of Hanks' balanced salt mixture containing 25 μM L-arginine was added and incubated for 30 min at 37° C. The medium was collected and centrifuged for 5 min at 5000 rpm, and 50 μl of the clear supernatant was used for nitrate and nitrite analysis. Each sample was analyzed in triplicate.

[4] = tested on: MCF-7 breast cancer cells; assay: MTT reduction cytotoxicity assay in MCF-7 cells; conditions: 48 h; for MCF-7 cell death (MTT assay) by isoprenylation inhibitors: 10-20 μM
Description: MTT Reduction Cytotoxicity Assay:
MTT is taken up by cells and is reduced to a colored formazon product that can be detected by spectrophotometry (max=562 nm). Reduction of MTT is dependent upon the mitochondrial respiratory function, and thus measures the relative number of viable cells in the culture. After the treatment was completed, MCF-7 cells were washed twice with DPBS and taken in a ml of MEM without FBS and incubated with 5 mg/ml MTT solution for 1 h at 37° C. Medium was removed and cells were solubilized in DMSO. The absorption was measured at 562 nm with reference at 630 nm.
We assessed the effectiveness of simvastatin and fluvastatin to induce cytotoxicity in MCF-7 cells. MCF-7 breast cancer cells were treated with fluvastatin or simvastatin at different concentrations (0.5-20 μM) for 24-48 h. The changes in the number of viable cells were determined using the MTT assay that monitors the intracellular conversion of MTT to formazon spectrophotometrically max=562 nm).

MCF-7 cells [5] = assay: Cell cycle analysis by flow cytometry; format: cell-based; conditions: 1400 W 10 μM, mevalonate 20 μM
Description: For DNA content analysis, harvested cells were centrifuged at 1,000×g for 5 min, fixed by the gradual addition of ice-cold 70% ethanol, and washed with PBS. Cells were then treated with RNase (10 μg/mL) for 30 min at 37° C., washed once with PBS, and resuspended and stained in 1 mL of 69 μmol/L propidium iodide in 38 mmol/L sodium citrate for 30 min at room temperature. The cell cycle phase distribution was determined by analytic DNA flow cytometry as described in (Vindelov L, et al. Methods Cell Biol, 33:127-37, 1990). The percentage of cells in each phase of the cell cycle was analyzed using a Modfit software (Verity Software House, Topsham, Me.).
As NO has previously been reported to exert tumor cell cycle alterations (Pervin S, et al. Natl Acad Sci USA 98:3583-3588, 2001), we investigated the cytostatic effect of statins in MCF-7 cells. MCF-7 cells were treated with simvastatin and fluvastatin for […] in the presence and absence of 1400 W (10 μM) and mevalonate (20 μM). Cell cycle progression was examined using FACScan flow cytometry analysis. […] As cell cycle progression from […] involves activations of the cell regulatory proteins, cyclins D and E, we investigated the effects of statins and iNOS inhibitor on the cell cycle proteins. […]

[6] = tested on: cyclin D1, cyclin E and p27 in MCF-7 cells; assay: Cell cycle protein levels by Western analysis (cyclin D1, cyclin E, p27); format: cell-based; conditions: 1400 W 10 μM or mevalonate 20 μM
Description: A (Table): The cell cycle distribution of MCF-7 cells treated with either simvastatin or fluvastatin (5-10 μM) for 40 h in the presence or 1400 W (10 μM) or mevalonate (20 μM). The cell sorting was performed by flow cytometry as described in “Materials and Methods.” B: Cells were treated with simvastatin or fluvastatin (10 μM) in the presence or absence of 1400 W (10 μM) or mevalonate (20 μM) for 40 h and cyclins D1 and E protein levels were measured by the Western analysis using the corresponding polyclonal or monoclonal antibodies. Data are representative of three separate experiments.
After treatment with statins, cells were washed with ice-cold DPBS and resuspended in 150 μl of radioimmune precipitation assay buffer (20 mM Tris-HCl, pH 7.4, 2.5 mM EDTA, 1% Triton X-100, 1% sodium deoxycholate, 1% SDS, 100 mM NaCl, 100 mM sodium fluoride) containing 1 mM sodium vanadate, 10 μg/ml aprotinin, 10 μg/ml leupeptin, and 10 μg/ml pepstatin inhibitors. Cells were homogenized by passing the suspension through a 25-gauge needle (20 strokes). The lysate was centrifuged at 750×g for 10 min at 4° C. to pellet out the nuclei. The remaining supernatant was centrifuged for 30 min at 12,000×g. Protein was determined using the Lowry method and 50 μg of the lysate was used for the Western blot analysis. […] The band was detected using the ECL method (Amersham Biosciences).

iNOS in MCF-7 cells = assay: iNOS mRNA (RT-PCR) and protein (Western) levels; format: cell-based; conditions: MCF-7 cells, 10-20 μM, 40 h, Western analysis
Description: After treatment with statins, cells were washed with ice-cold DPBS and resuspended in 150 μl of radioimmune precipitation assay buffer (20 mM Tris-HCl, pH 7.4, 2.5 mM EDTA, 1% Triton X-100, 1% sodium deoxycholate, 1% SDS, 100 mM NaCl, 100 mM sodium fluoride) containing 1 mM sodium vanadate, 10 μg/ml aprotinin, 10 μg/ml leupeptin, and 10 μg/ml pepstatin inhibitors. Cells were homogenized by passing the suspension through a 25-gauge needle (20 strokes). The lysate was centrifuged at 750×g for 10 min at 4° C. to pellet out the nuclei. The remaining supernatant was centrifuged for 30 min at 12,000×g. Protein was determined using the Lowry method and 50 μg of the lysate was used for the Western blot analysis. Proteins were resolved using the SDS-polyacrylamide gels and blotted onto nitrocellulose membranes. Membranes were washed with TBS (140 mM NaCl, 50 mM Tris-HCl, pH 7.2) containing 0.1% Tween 20 (TBST) and 5% skim milk to block the non-specific protein binding. Membranes were incubated with 1 μg/ml rabbit anti-iNOS polyclonal antibody (Abeam, Cambridge, Mass.), mouse anti-cyclin D1 antibody, mouse anti-cyclin E antibody (BD Biosciences, San Jose, Calif.) or rabbit anti-p27 antibody (Chemicon International, Temecula, Calif.) in TBST for overnight at 4° C., washed 5 times with TBST, and then incubated with goat anti-rabbit or rabbit anti-mouse IgG-horseradish peroxidase-conjugated secondary antibody (1:5,000) for 1.5 h at room temperature. The band was detected using the ECL method (Amersham Biosciences).
Following the treatments, medium was aspirated and 1 ml of TRIzol reagent (Invitrogen) was added and total RNA was extracted using the manufacturer's protocol. Five μg of RNA was used for the first strand cDNA synthesis using a first strand cDNA synthesis kit (Amersham Biosciences). […]

MCF-7 cells [7] = assay: 3H-thymidine uptake (DNA synthesis / cell proliferation); format: cell-based; conditions: 10-20 μM
Description: Thymidine Uptake Studies:
DNA synthesis was measured by monitoring the uptake of tritiated thymidine, [^3H]TdR (Perkin-Elmer, Boston, Mass.). Cells (5×10^5/ml) were cultured with different concentrations of simvastatin or fluvastatin (0-10 μM) in the presence or absence of mevalonate (20 μM), 1400 W, or sepiapterin. Cells were pulse-chased with [^3H]TdR [0.5 μCi (0.185 MBq)/well during the last 3 h of a 24 h culture, harvested onto glass filters with an automatic cell harvester (Cambridge Technology, Cambridge, Mass.), and counted using the LKB Betaplate scintillation counter (Wallac, Gaithersburg, Md.). All experiments were performed in triplicate and repeated three times.

Row | Molecule | effect on statin-induced TUNEL-positive cells (proapoptotic effect) (MCF-7 cells [2]) | effect on statin-induced NO / NO2-/NO3- levels [3] | visible colony formation in soft agar (MCF-7 cells [1]) | iNOS protein levels by isoprenylation inhibitors (iNOS in MCF-7 cells) | loss of MCF-7 cell proliferation (3H-thymidine uptake) by isoprenylation inhibitors (MCF-7 cells [7]) | MCF-7 cell death (MTT assay) by isoprenylation inhibitors [4] | other results
1 | C[C@H](O)C(=O)C1=Nc2c(nc(N)[nH]c2=O)NC1 [sepiapterin] | exacerbated | significantly increased |  |  |  |  | colony growth, sepiapterin supplementation with simvastatin or fluvastatin (MCF-7 cells [1]; lower concentration of simvastatin or fluvastatin (5 μM), sepiapterin 50 μM): completely inhibited; effect on statin-induced TUNEL-positive cells (proapoptotic effect) (MCF-7 cells [2]; listed as Sepiapterin): further augmented; NO2-/NO3- levels, sepiapterin with FTI-277 ([3]; MCF-7 cells): no effect; NO2-/NO3- levels, sepiapterin with GGTI-298 compared to GGTI-298 alone ([3]; MCF-7 cells): significantly increased; NO2-/NO3- levels, sepiapterin alone ([3]; in the absence of statin): did not increase
2 | N-nitroso-fluvastatin [NO-fluvastatin] |  |  |  |  |  |  | potency in causing MCF-7 cell death compared to fluvastatin alone (MTT assay) ([4]; 0-1 μM): more potent
3 | CC(=N)NCc1cccc(CN)c1 [1400 W, N-(3-aminomethyl)benzylacetamidine] | decrease | inhibited; also recorded: decreased |  |  |  |  | colony formation in statin-treated cells in the presence of modulator (MCF-7 cells [1]; 1400 W 10 μM or mevalonate 20 μM with statin 10 μM): restored; effect on statin-induced cell cycle alterations (MCF-7 cells [5]): partially reversed; effect on statin-induced decrease of cyclin D1 and cyclin E [6]: restored in part
4 | COC(=O)[C@H](CCSC)NC(=O)c1ccc(NC[C@@H](N)CS)cc1-c1ccccc1 [FTI-277, methyl {N-[2-phenyl-4-N[2(R)-amino-3-mecaptopropylamino]benzoyl]}-methionate] |  |  | not | not | not | not | 
5 | COC(=O)[C@H](CC(C)C)NC(=O)c1ccc(NC[C@@H](N)CS)cc1-c1cccc2ccccc12 [GGTI-298, N-4-[2(R)-amino-3-mercaptopropyl]amino-2-naphthylbenzoyl-(L)-leucine methyl ester] |  |  | drastically lowered | dose-dependently induced | loss of cell proliferation | induced MCF-7 cell death | 
6 | CC(C)=CCC/C(C)=C/CC/C(C)=C/CC/C=C(\C)CC/C=C(\C)CCC=C(C)C [squalene] |  |  |  |  |  |  | effect on statin-induced MCF-7 cell cytotoxicity (MTT assay) ([4]; pretreatment before simvastatin or fluvastatin (10 μM), mevalonate 20 μM, 1400 W 10 μM): did not prevent

— patent US20070219208A1, “Methods for Treating Cancer” (priority 2006, published 2007)
